Values quoted from earlier work in patent US20100111874A1, “METHOD OF CANCER DETECTION AND TREATMENT” (University of Medicine and Dentistry of New Jresey, priority 2007, published 2010).

Test system: human colon cancer xenografts
Settings: combined with interferons; nude mice; cited from earlier work

## CCc1c2c(nc3ccc(OC(=O)N4CCC(N5CCCCC5)CC4)cc13)-c1cc3c(c(=O)n1C2)COC(=O)[C@]3(O)CC [CPT-11]
  anticancer activity in combination with interferons: synergistic
